Test system: barnyard grass seeds
Experiment: Petri dish seed germination method: inhibition of root and stem growth of barnyard grass
Type: in vivo
Details: 96 hours incubation
Experimental: (§1) Step 2: Accurately weigh 1 mmol cis-p-menthane-1,8-di-Schiff base compounds and cis-p-menthane-1,8-di-secondary amine compounds respectively, dissolve each of them with 0.25 mL DMF, and add a drop of Tween 80 in each resulted solution. After being fully dissolved, each solution is transferred to a 100 mL volumetric flask respectively and then diluted to the mark with distilled water to obtain a solution with a concentration of 10 mmol/L as the mother liquor. The two-fold dilution method is used to prepare diluted solutions with a series of concentrations (the concentrations of DMF and Tween 80 in the diluted solutions are the same as those in the mother liquor).
(§2) Barnyard grass seeds are placed in a 28° C. incubator and are soaked in an appropriate amount of distilled water for 12 hours there. After the clean water is filtered out, the seeds are then placed in the 28° C. incubator for 24 hours to germinate. Spread 2 pieces of filter paper in each of several Petri dishes, and place 10 barnyard grass seeds with the same size in each dish. Repeat each treatment for three times The dishes are divided into two groups: test dishes and control dishes. Add into each test dish 10 mL of the sample solution with the corresponding concentration of the target compound, and add into each control dish the same amount of the mixture of water, DMF and Tween 80 as the blank control. Add 10 seeds to each of the dishes (both test dishes and control dishes), place them in an artificial climate incubator, and incubate them for 96 hours under a temperature of 28° C., an illumination of 5000 1×, a photoperiod of day:night=16:8 and a relative humidity of 70-80%. The experimental data is processed and analyzed with DPS software to calculate the inhibition rate (y) of cis-p-menthane-1,8-di-secondary amine compounds on the root growth or stem growth of barnyard grass seeds.
Wherein, y is the inhibition rate of root growth or stem growth (%), x0 is the root length or stem length of the control, and x1 is the root length or stem length of the sample.
as §1, with “Accurately” for “Step 2: Accurately”, “cis-p-menthane-1,8-bis-(4-chlorophenyl)Schiff” for “cis-p-menthane-1,8-di-Schiff”, “base” for “base compounds”, “cis-p-menthane-1,8-bis-(4-chlorobenzyl)amine” for “cis-p-menthane-1,8-di-secondary amine compounds”, “(5 mmol/L, 2.5 mmol/L, 1.25 mmol/L, 0.625 mmol/L, 0.3125 mmol/L and 0.1563 mmol/L; the” for “(the”
as §2, with “placed in a 30° C. incubator” for “placed in the 28° C. incubator”, “in each Petri dish,” for “in each of several Petri dishes,”, “each Petri dish, and place” for “several Petri dishes, and place”, “with the above corresponding concentration” for “with the corresponding concentration”, “with DPS software.” for “with DPS software to calculate the inhibition rate (y) of cis-p-menthane-1,8-di-secondary amine compounds on the root growth or stem growth of barnyard grass seeds.”

SMILES | inhibition rate on the root growth of barnyard grass seeds (0.15625 mmol/L) [%] | inhibition rate on the stem growth of barnyard grass seeds (0.15625 mmol/L) [%] | inhibition rate on the root growth of barnyard grass seeds (0.3125 mmol/L) [%] | inhibition rate on the stem growth of barnyard grass seeds (0.3125 mmol/L) [%] | inhibition rate on the root growth of barnyard grass seeds (0.625 mmol/L) [%] | inhibition rate on the stem growth of barnyard grass seeds (0.625 mmol/L) [%] | inhibition rate on the root growth of barnyard grass seeds (1.25 mmol/L) [%] | inhibition rate on the stem growth of barnyard grass seeds (1.25 mmol/L) [%] | inhibition rate on the root growth of barnyard grass seeds (2.5 mmol/L) [%] | inhibition rate on the stem growth of barnyard grass seeds (2.5 mmol/L) [%] | inhibition rate on the root growth of barnyard grass seeds (5 mmol/L) [%] | inhibition rate on the stem growth of barnyard grass seeds (5 mmol/L) [%]
CC1(NCc2cccs2)CCC(C(C)(C)NCc2cccs2)CC1 (stereo not drawn) [cis-p-menthane-1,8-bis(thiophen-2-methyl)amine] | 0.8 | 13.3 | 1.5 | 28.9 | 5.8 | 39.2 | 50.0 | 45.3 | 75.1 | 51.0 | 86.0 | 59.1
CC1(N=Cc2ccccc2C(F)(F)F)CCC(C(C)(C)N=Cc2ccccc2C(F)(F)F)CC1 (stereo not drawn) [cis-p-menthane-1,8-bis-(2-trifluoromethylbenzyl)Schiff base, reference compound] |  |  | 20.9 | 9 | 15.4 | 13.2 | 2.7 | 17.7 | 20.6 | 12.1 | 34.8 | 21.2
CC(C)(NCc1ccccc1C(F)(F)F)[C@H]1CC[C@@](C)(NCc2ccccc2C(F)(F)F)CC1 [cis-p-menthane-1,8-bis-(2-trifluoromethylbenzyl)amine] | 51.9 | 36.9 | 57.0 | 43.6 | 68.0 | 49.0 | 93. | 59.6 | 100 | 87.4 | 100 | 90.3
CC(C)(N=Cc1ccc(Br)cc1)[C@H]1CC[C@@](C)(N=Cc2ccc(Br)cc2)CC1 [cis-p-menthane-1,8-bis-(4-bromobenzyl)Schiff base, reference compound] |  |  | −3.2 | 6.5 | 28.5 | 19.6 | 46.8 | 42.3 | 72.6 | 39.3 | 69.4 | 55.9
CC(C)(NCc1ccc(Br)cc1)[C@H]1CC[C@@](C)(NCc2ccc(Br)cc2)CC1 [cis-p-menthane-1,8-bis-(4-bromobenzyl)amine] | 30.7 | 25.2 | 57.6 | 35.4 | 83.4 | 51.7 | 89.6 | 58.5 | 97.4 | 88.2 | 100.0 | 92.3
CC1(NCc2ccc(Cl)cc2)CCC(C(C)(C)NCc2ccc(Cl)cc2)CC1 (stereo not drawn) [cis-p-menthane-1,8-bis-(4-chlorobenzyl)amine] | 31.4 | 35.7 | 57.1 | 41.6 | 87.3 | 65.8 | 90.8 | 63.4 | 91.6 | 68.0 | 96.7 | 75.1
CC(C)(N=Cc1ccc(Cl)cc1)[C@H]1CC[C@@](C)(N=Cc2ccc(Cl)cc2)CC1 [cis-p-menthane-1,8-bis-(4-chlorophenyl) Schiff base, reference compound] |  |  | −5.0 | 1.4 | 24.3 | 4.6 | 76.7 | 23.9 | 49.9 | 22.8 | 92.4 | 20.9
CN(C)c1ccc(C=NC(C)(C)[C@H]2CC[C@@](C)(N=Cc3ccc(N(C)C)cc3)CC2)cc1 [cis-p-menthane-1,8-bis-(4-dimethylaminobenzyl)Schiff base, reference compound] |  |  | 9.7 | −12.2 | 45.4 | 9.5 | 49.8 | 6.9 | 59.3 | 1.9 | 67.1 | 13.2
CN(C)c1ccc(CNC2(C)CCC(C(C)(C)NCc3ccc(N(C)C)cc3)CC2)cc1 (stereo not drawn) [cis-p-menthane-1,8-bis-(4-dimethylaminobenzyl)amine] | 14.4 | 19.1 | 31.0 | 19.6 | 21.0 | 24.9 | 48.1 | 22.3 | 70.3 | 34.3 | 89.3 | 56.6
CC1(N=Cc2ccc(F)cc2)CCC(C(C)(C)N=Cc2ccc(F)cc2)CC1 (stereo not drawn) [cis-p-menthane-1,8-bis-(4-fluorobenzyl)Schiff base, reference compound] |  |  | 15.7 | −13.7 | 72.8 | 2.7 | 85.7 | 23.9 | 82.9 | 20.1 | 79.7 | 32.3

— patent publication US20210161131A1, “cis-p-Menthane-1,8-Di-secondary Amine Compounds as well as Their Preparation Methods and Application in Weed Control” (RESEARCH INSTITUTE OF FORESTRY NEW TECHNOLOGY, CHINESE …, priority 2019, published 2021)
